The values that follow come from PubChem BioAssay AID330 (DTP/NCI, 2004).

Several values for one entry are separate records, joined by “and”; a condition that tells them apart may be missing. Identical values can stand only once. Toxic doses and inconclusive results are not listed.

The test system of this experiment is P388 leukemia ip, CD2F1 mice, survival T/C. The experiment can be described thus: NCI In Vivo Anticancer Drug Screen. Data for tumor model P388 Leukemia (intraperitoneal) in CD2F1 (CDF1) mice. The following applies: endpoint: median survival time, higher = longer survival. The method in brief:
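Mice carrying the transplanted tumor received test compound or vehicle. Survival was recorded in each group, and the value is the treated-group measurement divided by that of the vehicle-treated control group.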

Where [1] appears, read: dose: 50.0 mg/kg/injection, schedule: Q01DX009 (ip), vehicle: saline with Tween-80.
The mark [2] stands for this setting: dose: 100.0 mg/kg/injection, schedule: Q01DX009 (ip), vehicle: saline with Tween-80.
[3] abbreviates: dose: 200.0 mg/kg/injection, schedule: Q01DX009 (ip), vehicle: saline with Tween-80.
Where [4] appears, read: dose: 100.0 mg/kg/injection, schedule: Q01DX009 (ip), vehicle: Klucel (hydroxypropylcellulose) (HPC).
The mark [5] stands for this setting: dose: 200.0 mg/kg/injection, schedule: Q01DX009 (ip), vehicle: Klucel (hydroxypropylcellulose) (HPC).
Where [6] appears, read: dose: 50.0 mg/kg/injection, schedule: Q04DX003 (ip), vehicle: saline with Tween-80.
Where [7] appears, read: dose: 100.0 mg/kg/injection, schedule: Q04DX003 (ip), vehicle: saline with Tween-80.
The mark [8] stands for this setting: dose: 100.0 mg/kg/injection, schedule: Q04DX003 (ip), vehicle: saline.
Setting [9] is: dose: 200.0 mg/kg/injection, schedule: Q04DX003 (ip), vehicle: saline with Tween-80.
The mark [10] stands for this setting: dose: 200.0 mg/kg/injection, schedule: Q04DX003 (ip), vehicle: saline.
Setting [11] is: dose: 400.0 mg/kg/injection, schedule: Q04DX003 (ip), vehicle: saline.
[12] abbreviates: dose: 50.0 mg/kg/injection, schedule: Q01DX009 (ip), vehicle: Klucel (hydroxypropylcellulose) (HPC).
Where [13] appears, read: dose: 50.0 mg/kg/injection, schedule: Q01DX009 (ip), vehicle: saline.
Setting [14] is: dose: 100.0 mg/kg/injection, schedule: Q01DX009 (ip), vehicle: saline.
The mark [15] stands for this setting: dose: 200.0 mg/kg/injection, schedule: Q01DX009 (ip), vehicle: saline.
Where [16] appears, read: dose: 50.0 mg/kg/injection, schedule: Q01DX005 (ip), vehicle: Klucel (hydroxypropylcellulose) (HPC).
[17] abbreviates: dose: 100.0 mg/kg/injection, schedule: Q01DX005 (ip), vehicle: Klucel (hydroxypropylcellulose) (HPC).
Setting [18] is: dose: 200.0 mg/kg/injection, schedule: Q01DX005 (ip), vehicle: Klucel (hydroxypropylcellulose) (HPC).

As for `CCCCCCCCCCCCCCCCCCCC(O)CCCCCCCCC` (configuration not stated), the T/C reads like this: (dose: 15.0 mg/kg/injection, schedule: Q01DX005 (ip), vehicle: saline with Tween-80) 102 % of control; (dose: 30.0 mg/kg/injection, schedule: Q01DX005 (ip), vehicle: saline with Tween-80) 94 % of control; (dose: 60.0 mg/kg/injection, schedule: Q01DX005 (ip), vehicle: saline with Tween-80) 87 % of control; (dose: 120.0 mg/kg/injection, schedule: Q01DX005 (ip), vehicle: saline with Tween-80) 86 % of control.
As for `CC[C@@H](C)[C@@H]1NC(=O)C(NC(=O)C(CC(C)C)N(C)C(=O)C2CCCN2C(=O)C(C)O)C(C)OC(=O)C(Cc2ccc(OC)cc2)N(C)C(=O)C2CCCN2C(=O)C(CC(C)C)NC(=O)C(C)C(=O)C(C(C)C)OC(=O)C[C@H]1O` (some centres not stated), the T/C is 171 % of control (dose: 0.03 mg/kg/injection, schedule: Q01DX009 (ip), vehicle: none); 112 % of control (dose: 10.0 micrograms/kg/injection, schedule: Q01DX009 (ip), vehicle: distilled water + alcohol); 112 % of control (dose: 20.0 micrograms/kg/injection, schedule: Q01DX009 (ip), vehicle: distilled water + alcohol); 155 % of control (dose: 80.0 micrograms/kg/injection, schedule: Q01DX009 (ip), vehicle: distilled water + alcohol).
Consider `CC(C)=NOC1CCCCC1OS(=O)(=O)c1ccc(C)cc1` (configuration not stated), for which the T/C is 94 % of control under setting [1], 95 % of control under setting [2] and 110 % of control under setting [3].
For `Cc1cc(C)c(S(=O)(=O)O)c(C)c1Nc1ccc(Nc2c(C)cc(C)c(S(=O)(=O)O)c2C)c2c1C(=O)c1ccccc1C2=O`, the T/C under setting [1] was 92 % of control and the T/C under setting [2] was 91 % of control.
As to `COc1cc2ccc3c(c2cc1OC)CN(Cc1ccccc1)CC3`, the T/C reads like this: under setting [4], 100 % of control; under setting [5], 100 % of control; (dose: 400.0 mg/kg/injection, schedule: Q01DX009 (ip), vehicle: Klucel (hydroxypropylcellulose) (HPC)) 109 % of control.
`C=CCSc1nc2ccc(NCn3c(=S)sc4cc([N+](=O)[O-])ccc43)cc2s1`: the T/C (dose: 100.0 mg/kg/injection, schedule: Q04DX003 (ip), vehicle: Klucel (hydroxypropylcellulose) (HPC)) is 90 % of control and the T/C (dose: 200.0 mg/kg/injection, schedule: Q04DX003 (ip), vehicle: Klucel (hydroxypropylcellulose) (HPC)) was 86 % of control.
Consider `Cc1noc(NS(=O)(=O)c2ccc(N=Nc3cc(N=Nc4ccc(S(=O)(=O)Nc5onc(C)c5C)cc4)c4c(NC(=O)C(Cl)Cl)cccc4c3OC(=O)C(Cl)Cl)cc2)c1C`, for which the T/C is 94 % of control under setting [1] and 100 % of control under setting [2].
Regarding `CC1(C)OCC2OC=CC(=O)C2O1` (configuration not stated), the T/C runs as follows: under setting [6], 108 % of control; under setting [7], 101 % of control; under setting [8], 108 % of control; under setting [9], 111 % of control; under setting [10], 104 % of control; (dose: 400.0 mg/kg/injection, schedule: Q04DX003 (ip), vehicle: saline with Tween-80) 120 % of control. Also, the T/C under setting [11] is 124 % of control.
In the case of `N#C/C(=C1/Nc2ccccc2NC1=O)c1ccccc1`, the T/C (dose: 50.0 mg/kg/injection, schedule: Q01DX009 (ip), vehicle: distilled water + Tween-80 + alcohol) is 96 % of control and the T/C (dose: 100.0 mg/kg/injection, schedule: Q01DX009 (ip), vehicle: distilled water + Tween-80 + alcohol) was 92 % of control.
On to `O=c1[nH]cnc2cc(N3CCOCC3)c([N+](=O)[O-])cc12`, for which the T/C under setting [6] was 105 % of control, the T/C under setting [7] is 100 % of control and the T/C under setting [9] was 100 % of control.
Turning to `COc1cc(/C=N/NS(=O)(=O)c2ccc(C)cc2)cc([N+](=O)[O-])c1O`, the T/C runs as follows: (dose: 3.12 mg/kg/injection, schedule: Q01DX009 (ip), vehicle: distilled water + Tween-80) 87 % of control; (dose: 6.25 mg/kg/injection, schedule: Q01DX009 (ip), vehicle: distilled water + Tween-80) 103 % of control; (dose: 12.5 mg/kg/injection, schedule: Q01DX009 (ip), vehicle: distilled water + Tween-80) 104 % of control; (dose: 25.0 mg/kg/injection, schedule: Q01DX009 (ip), vehicle: distilled water + Tween-80) 104 % of control; (dose: 25.0 mg/kg/injection, schedule: Q01DX009 (ip), vehicle: other) 106 % of control; (dose: 50.0 mg/kg/injection, schedule: Q01DX009 (ip), vehicle: other) 99 % of control. In addition, the T/C runs as follows: (dose: 100.0 mg/kg/injection, schedule: Q01DX009 (ip), vehicle: other) 106 % of control; (dose: 200.0 mg/kg/injection, schedule: Q01DX009 (ip), vehicle: other) 98 % of control; (dose: 400.0 mg/kg/injection, schedule: Q01DX009 (ip), vehicle: other) 113 % of control.
Take `C1=NCc2nnn(Cc3ccccc3)c2N1`: the T/C is 102 % of control under setting [12], 98 % of control under setting [4] and 108 % of control under setting [5].
For the compound `[O-][N+](=C1c2ccccc2-c2ccccc21)c1ccccc1`, the T/C is 109 % of control (dose: 50.0 mg/kg/injection, schedule: Q04DX003 (ip), vehicle: saline); 118 % of control under setting [8]; 95 % of control under setting [10].
For `[CH3][Ge]([O][Ge]([CH3])([c]1ccccc1)[c]1ccccc1)([c]1ccccc1)[c]1ccccc1`, the T/C is 102 % of control under setting [13], 93 % of control under setting [14] and 92 % of control under setting [15].
Regarding `CC1=C(N2CCOCC2)C(N2CCOCC2)C(C)C1=O` (configuration not stated), the T/C reads like this: under setting [16], 100 % of control; under setting [17], 101 % of control; under setting [18], 100 % of control.
Regarding `O=S(=O)(O)c1cccnc1`, the T/C under setting [14] was 104 % of control; the T/C under setting [8] was 100 % of control; the T/C under setting [15] was 104 % of control; the T/C under setting [10] was 95 % of control; the T/C (dose: 400.0 mg/kg/injection, schedule: Q01DX009 (ip), vehicle: saline) is 95 % of control; the T/C under setting [11] was 100 % of control.
Regarding `CCCCN=NN/C=C/C(C)(C)C`, the T/C (dose: 50.0 mg/kg/injection, schedule: Q01DX005 (ip), vehicle: saline with Tween-80) is 115 % of control.
On to `O=S(=O)(F)c1ccc(N=C=S)cc1`, for which the T/C was 100 % of control (dose: 6.25 mg/kg/injection, schedule: Q04DX003 (ip), vehicle: saline with Tween-80); 104 % of control (dose: 12.5 mg/kg/injection, schedule: Q04DX003 (ip), vehicle: saline with Tween-80); 109 % of control (dose: 25.0 mg/kg/injection, schedule: Q04DX003 (ip), vehicle: saline with Tween-80).
Regarding `Oc1ccc2c(ccc3[nH]cnc32)c1`, the T/C was 98 % of control (dose: 50.0 mg/kg/injection, schedule: Q01DX005 (ip), vehicle: saline); 101 % of control (dose: 100.0 mg/kg/injection, schedule: Q01DX005 (ip), vehicle: saline); 111 % of control (dose: 200.0 mg/kg/injection, schedule: Q01DX005 (ip), vehicle: saline).
Take `COC1=C(OC)C(=O)C(SC/C=C(\C)CCCC(C)CCCC(C)CCCC(C)C)=CC1=O` (configuration not stated): where the note is “dose: 6.25 mg/kg/injection, schedule: Q01DX009 (ip), vehicle: saline with Tween-80”, the T/C was 105 % of control and 106 % of control and 113 % of control.
On to `CN(C)C1=CC(=O)NC2CCCCC12` (configuration not stated), for which the T/C is 95 % of control under setting [16], 98 % of control under setting [17] and 105 % of control under setting [18].
For `CCCCN(CCCC)c1nsc(N2CCOCC2)n1`, the T/C by setting is: under setting [1], 94 % of control; under setting [2], 100 % of control; under setting [3], 108 % of control.
As for `CN1CCN(CCSSCCN2CCN(C)CC2)CC1`, the T/C was 109 % of control under setting [13], 104 % of control under setting [14] and 109 % of control under setting [15].
On to `O=C1CCCC(C(Sc2ccccc2)(Sc2ccccc2)Sc2ccccc2)C1` (configuration not stated), for which the T/C is, setting by setting: under setting [12], 99 % of control; under setting [4], 95 % of control; under setting [5], 93 % of control.
With `O=C1CSC(=S)N1Cc1cccnc1`, the T/C runs as follows: under setting [12], 100 % of control; under setting [4], 102 % of control; under setting [5], 106 % of control.
